In BindingDB's records for doi:10.1021/jm060166w (University of Tours, 2006):

Biological target: 5-hydroxytryptamine receptor 1A (Sus scrofa)
Assay: Displacement of [3H]8-OH-DPAT from 5HT1A receptor in porcine cortical membrane

Fc1ccc(N2CCN(Cc3cn4ccccc4n3)CC2)cc1 [2-[4-(4-fluorophenyl)piperazin-1-ylmethyl]imidazo[1,2-a]pyridine]
Ki: 3.6 µM
